Measured values published in patent US9255295B2, “Method for evaluating the sensitizing potential of a test compound” (IMMUNOSEARCH, priority 2010, dated 2016).

Legend:
[1] = tested on: genes specific for sensitization (BRAK, CTSS, DAPK2, FABP4, HSP27, IL18, HSP90, IL1R2, TPSAB1, CXCR1, DEFB1, DHFR, EHF, IVL, KRT4, MELANA, NGAL, PDZK1IP1, PI3 …); experiment: Expression of the other (non-ARE) sensitization-specific genes in EPISKIN reconstructed skin (quantitative RT-PCR); type: cell-based, human; conditions: for BRAK expression / DHFR expression / HSP90 expression / IL18 expression / KRT4 expression / MELANA expression / PDZK1iP1 expression / SERPINB3 expression: compared to the control
EPISKIN model = experiment: Sensitizing power: sensitizing potential retested at successive dilutions in the EPISKIN model

O=CC=O [Glyoxal]
CTSS grade (NUMBER OF GENES) ([1]; 10%): 1 (If the expression is greater than 1.3 compared to the control, a grade of 11s given)
CXCR1 expression compared to control ([1]; 10%): 1.8
CXCR1 grade (NUMBER OF GENES) ([1]; 10%): 1 (If the expression is greater than 1.3 compared to the control, a grade of 11s given)
DAPK2 expression compared to control ([1]; 10%): 0.9
DAPK2 grade (NUMBER OF GENES) ([1]; 10%): 0 (if this expression is lower, the grade is 0)
DEFB1 expression compared to control ([1]; 10%): 1.6
DEFB1 grade (NUMBER OF GENES) ([1]; 10%): 1 (If the expression is greater than 1.3 compared to the control, a grade of 11s given)
DHFR NUMBER OF GENES grade ([1]; 10%): 0 (if this expression is lower, the grade is 0)
EHF expression compared to control ([1]; 10%): 0.9
EHF grade (NUMBER OF GENES) ([1]; 10%): 0 (if this expression is lower, the grade is 0)
FABP4 expression compared to control ([1]; 10%): 0.8
FABP4 grade (NUMBER OF GENES) ([1]; 10%): 0 (if this expression is lower, the grade is 0)
HSP27 expression compared to control ([1]; 10%): 0.8
HSP27 grade (NUMBER OF GENES) ([1]; 10%): 0 (if this expression is lower, the grade is 0)
HSP90 NUMBER OF GENES grade ([1]; 10%): 1 (If the expression is greater than 1.3 compared to the control, a grade of 11s given)
IL18 NUMBER OF GENES grade ([1]; 10%): 1 (If the expression is greater than 1.3 compared to the control, a grade of 11s given)
IVL expression compared to control ([1]; 10%): 1.6
IVL grade (NUMBER OF GENES) ([1]; 10%): 1 (If the expression is greater than 1.3 compared to the control, a grade of 11s given)
KRT4 NUMBER OF GENES grade ([1]; 10%): 1 (If the expression is greater than 1.3 compared to the control, a grade of 11s given)
MELANA NUMBER OF GENES grade ([1]; 10%): 0 (if this expression is lower, the grade is 0)
NGAL expression compared to control ([1]; 10%): 1.3
NGAL grade (NUMBER OF GENES) ([1]; 10%): 1 (If the expression is greater than 1.3 compared to the control, a grade of 11s given)
P13 expression compared to control ([1]; 10%): 1.3
P13 grade (NUMBER OF GENES) ([1]; 10%): 1 (If the expression is greater than 1.3 compared to the control, a grade of 11s given)
PDZK1iP1 NUMBER OF GENES grade ([1]; 10%): 1 (If the expression is greater than 1.3 compared to the control, a grade of 11s given)
SENS >1.3 (number of genes) ([1]; 10%): 13
SERPINB3 NUMBER OF GENES grade ([1]; 10%): 1 (If the expression is greater than 1.3 compared to the control, a grade of 11s given)
TOTAL SENS (number of genes) ([1]; 10%): 13
BRAK expression ([1]; 10%): 0.5
DHFR expression ([1]; 10%): 0.9
HSP90 expression ([1]; 10%): 1.5
IL18 expression ([1]; 10%): 1.3
KRT4 expression ([1]; 10%): 1.4
MELANA expression ([1]; 10%): 1.1
PDZK1iP1 expression ([1]; 10%): 1.4
SERPINB3 expression ([1]; 10%): 1.3
BRAK NUMBER OF GENES grade ([1]; 50%): 0 (if this expression is lower, the grade is 0)
CTSS expression compared to control ([1]; 50%): 2.7
CTSS grade (NUMBER OF GENES) ([1]; 50%): 1 (If the expression is greater than 1.3 compared to the control, a grade of 11s given)
CXCR1 expression compared to control ([1]; 50%): 2.7
CXCR1 grade (NUMBER OF GENES) ([1]; 50%): 1 (If the expression is greater than 1.3 compared to the control, a grade of 11s given)
DAPK2 expression compared to control ([1]; 50%): 0.9
DAPK2 grade (NUMBER OF GENES) ([1]; 50%): 0 (if this expression is lower, the grade is 0)
DEFB1 expression compared to control ([1]; 50%): 1.6
DEFB1 grade (NUMBER OF GENES) ([1]; 50%): 1 (If the expression is greater than 1.3 compared to the control, a grade of 11s given)
DHFR NUMBER OF GENES grade ([1]; 50%): 0 (if this expression is lower, the grade is 0)
EHF expression compared to control ([1]; 50%): 0.9
EHF grade (NUMBER OF GENES) ([1]; 50%): 0 (if this expression is lower, the grade is 0)
FABP4 expression compared to control ([1]; 50%): 0.8
FABP4 grade (NUMBER OF GENES) ([1]; 50%): 0 (if this expression is lower, the grade is 0)
HSP27 expression compared to control ([1]; 50%): 0.8
HSP27 grade (NUMBER OF GENES) ([1]; 50%): 0 (if this expression is lower, the grade is 0)
HSP90 NUMBER OF GENES grade ([1]; 50%): 1 (If the expression is greater than 1.3 compared to the control, a grade of 11s given)
IL18 NUMBER OF GENES grade ([1]; 50%): 0 (if this expression is lower, the grade is 0)
IVL expression compared to control ([1]; 50%): 1.5
IVL grade (NUMBER OF GENES) ([1]; 50%): 1 (If the expression is greater than 1.3 compared to the control, a grade of 11s given)
KRT4 NUMBER OF GENES grade ([1]; 50%): 0 (if this expression is lower, the grade is 0)
MELANA NUMBER OF GENES grade ([1]; 50%): 0 (if this expression is lower, the grade is 0)
NGAL expression compared to control ([1]; 50%): 0.6
NGAL grade (NUMBER OF GENES) ([1]; 50%): 0 (if this expression is lower, the grade is 0)
P13 expression compared to control ([1]; 50%): 1.4
P13 grade (NUMBER OF GENES) ([1]; 50%): 1 (If the expression is greater than 1.3 compared to the control, a grade of 11s given)
PDZK1iP1 NUMBER OF GENES grade ([1]; 50%): 0 (if this expression is lower, the grade is 0)
SENS >1.3 (number of genes) ([1]; 50%): 8
SERPINB3 NUMBER OF GENES grade ([1]; 50%): 1 (If the expression is greater than 1.3 compared to the control, a grade of 11s given)
TOTAL SENS (number of genes) ([1]; 50%): 8
BRAK expression ([1]; 50%): 0.5
DHFR expression ([1]; 50%): 0.9
HSP90 expression ([1]; 50%): 2.0
IL18 expression ([1]; 50%): 1.0
KRT4 expression ([1]; 50%): 0.6
MELANA expression ([1]; 50%): 1.1
PDZK1iP1 expression ([1]; 50%): 1.0
SERPINB3 expression ([1]; 50%): 1.7
sensitizing potential (conclusion) (EPISKIN model; 0.1%): Sensitizing
sensitizing potential (conclusion) (EPISKIN model; 1%): Sensitizing
sensitizing potential (conclusion) (EPISKIN model; 10%): Sensitizing
sensitizing potential (conclusion) (EPISKIN model; 50%): Sensitizing
sensitizing power (class) (EPISKIN model; from successive dilutions): MODERATE
